SMILES strings stand for the structures. Like-named read-outs stand apart in the source and are kept apart here.

One may read the IC50 as the concentration that inhibits the measured activity by half.

The target of assay [1] is T1, human TLR7 (Homo sapiens, UniProt Q9NYK1).
T1 construct: host or cells: HEK-Blue cells (HEK293-derived reporter line)
T1 sequence (Q9NYK1 27-1049): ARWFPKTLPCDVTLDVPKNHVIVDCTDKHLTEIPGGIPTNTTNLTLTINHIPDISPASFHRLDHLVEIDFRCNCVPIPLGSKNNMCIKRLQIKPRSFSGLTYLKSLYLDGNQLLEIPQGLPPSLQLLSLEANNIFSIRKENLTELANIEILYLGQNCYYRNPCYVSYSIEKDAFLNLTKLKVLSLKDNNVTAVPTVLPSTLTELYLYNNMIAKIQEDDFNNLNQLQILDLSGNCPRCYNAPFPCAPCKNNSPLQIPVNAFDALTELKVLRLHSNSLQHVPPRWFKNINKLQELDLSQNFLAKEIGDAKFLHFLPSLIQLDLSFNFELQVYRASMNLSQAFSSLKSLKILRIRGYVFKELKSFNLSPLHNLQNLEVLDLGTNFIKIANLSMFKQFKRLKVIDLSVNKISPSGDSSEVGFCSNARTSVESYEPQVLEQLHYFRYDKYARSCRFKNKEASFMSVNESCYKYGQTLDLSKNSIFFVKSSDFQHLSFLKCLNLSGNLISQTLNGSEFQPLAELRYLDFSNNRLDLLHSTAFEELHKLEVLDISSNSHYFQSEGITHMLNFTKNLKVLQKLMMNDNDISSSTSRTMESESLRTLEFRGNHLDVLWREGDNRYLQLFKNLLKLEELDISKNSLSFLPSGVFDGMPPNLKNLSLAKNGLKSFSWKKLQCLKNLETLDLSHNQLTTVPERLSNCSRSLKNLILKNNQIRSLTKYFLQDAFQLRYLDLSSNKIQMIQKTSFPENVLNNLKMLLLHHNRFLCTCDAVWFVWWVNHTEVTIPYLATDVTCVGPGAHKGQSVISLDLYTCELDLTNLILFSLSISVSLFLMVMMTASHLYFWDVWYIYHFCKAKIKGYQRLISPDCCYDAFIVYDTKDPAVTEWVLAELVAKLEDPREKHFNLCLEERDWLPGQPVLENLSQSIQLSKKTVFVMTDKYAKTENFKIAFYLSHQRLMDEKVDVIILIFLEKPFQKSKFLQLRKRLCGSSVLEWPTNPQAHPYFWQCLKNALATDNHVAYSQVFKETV
Description: TLR7 inhibition reporter assay (HEK-Blue cells, secreted embryonic alkaline phosphatase reporter). Type of assay: cell-based. The following applies: HEK-Blue cells overexpressing human TLR7, stimulated with gardiquimod 7.5 μM; read-out: TLR 7 IC50. The protocol:
TLR7/8/9 Inhibition Reporter Assays
HEK-Blue™-cells (Invivogen) overexpressing human TLR7, TLR8 or TLR9 receptors were used for screening inhibitors of these receptors using an inducible SLAP (secreted embryonic alkaline phosphatase) reporter gene under the control of the […] minimal promoter fused to five NF-κB and AP-1-binding sites. Briefly, cells are seeded into Greiner 384 well plates (15000 cells per well for TLR7, 20,000 for TLR8 and 25,000 for TLR9) and then treated with test compounds in DMSO to yield a final dose response concentration range of 0.05 nM-50 μM. After a 30 minute compound pre-treatment at room temperature, the cells are then stimulated with a TLR7 ligand (gardiquimod at a final concentration of 7.5 μM), TLR8 ligand (R848 at a final concentration of 15.9 μM) or TLR9 ligand (ODN2006 at a final concentration of 5 nM) to activate NF-κB and AP-1 which induce the production of SLAP. After a 22 hour incubation at 37° C., […], SLAP levels are determined with the addition of HEK-Blue™ Detection reagent (Invivogen), a cell culture medium that allows for detection of SLAP, according to manufacturer's specifications. The percent inhibition is determined as the […] in the HEK-Blue signal present in wells treated with agonist plus DMSO alone compared to wells treated with a known inhibitor.
For orientation: In a reporter assay the amount or activity of a reporter protein is the signal.

The target of assay [2] is T2, human TLR9 (Homo sapiens, UniProt Q9NR96).
T2 construct: host or cells: HEK-Blue cells (HEK293-derived reporter line)
T2 sequence (Q9NR96 26-1032): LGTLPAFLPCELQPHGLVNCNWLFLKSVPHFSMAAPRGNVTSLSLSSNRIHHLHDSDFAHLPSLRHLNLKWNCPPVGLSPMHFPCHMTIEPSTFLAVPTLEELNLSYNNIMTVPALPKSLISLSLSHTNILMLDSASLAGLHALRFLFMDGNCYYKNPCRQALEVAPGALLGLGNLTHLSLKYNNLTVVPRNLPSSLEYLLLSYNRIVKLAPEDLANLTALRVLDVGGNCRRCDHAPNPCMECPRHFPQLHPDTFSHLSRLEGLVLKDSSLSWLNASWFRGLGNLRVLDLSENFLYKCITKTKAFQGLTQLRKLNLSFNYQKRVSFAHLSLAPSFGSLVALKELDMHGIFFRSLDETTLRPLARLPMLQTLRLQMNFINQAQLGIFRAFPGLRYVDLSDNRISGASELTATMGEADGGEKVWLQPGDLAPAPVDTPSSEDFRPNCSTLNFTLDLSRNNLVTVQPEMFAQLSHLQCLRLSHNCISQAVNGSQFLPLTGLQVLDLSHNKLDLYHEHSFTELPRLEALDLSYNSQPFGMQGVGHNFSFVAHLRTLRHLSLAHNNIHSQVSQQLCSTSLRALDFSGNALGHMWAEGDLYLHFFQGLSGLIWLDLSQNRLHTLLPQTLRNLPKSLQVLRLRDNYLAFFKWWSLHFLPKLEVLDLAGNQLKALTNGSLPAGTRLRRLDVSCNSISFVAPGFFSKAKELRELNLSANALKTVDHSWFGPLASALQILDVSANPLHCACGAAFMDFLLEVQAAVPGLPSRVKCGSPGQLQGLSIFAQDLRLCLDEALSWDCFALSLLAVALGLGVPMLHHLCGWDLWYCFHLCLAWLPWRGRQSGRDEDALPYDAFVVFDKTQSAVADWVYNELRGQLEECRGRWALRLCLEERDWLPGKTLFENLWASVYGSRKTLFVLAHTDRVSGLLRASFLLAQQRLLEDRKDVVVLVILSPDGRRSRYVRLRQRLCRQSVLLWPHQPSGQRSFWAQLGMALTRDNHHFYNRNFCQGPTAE
Description: TLR9 inhibition reporter assay (HEK-Blue cells, secreted embryonic alkaline phosphatase reporter). Type of assay: cell-based. Summed up:
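Agonist-driven SEAP output was measured in HEK-Blue reporter cells carrying human TLR7 (gardiquimod 7.5 μM), TLR8 (R848 15.9 μM) or TLR9 (ODN2006 5 nM). Compounds at 0.05 nM–50 μM final were added 30 min before stimulation at room temperature. After 22 h at 37 °C, percent inhibition was taken against agonist/DMSO wells and a reference inhibitor.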

[3] abbreviates: HEK-Blue cells overexpressing human TLR9, stimulated with ODN2006 5 nM, 22 hour incubation, reporter readout.
Setting [4] is: HEK-Blue cells overexpressing human TLR9, stimulated with ODN2006 5 nM, read-out: TLR 9 IC50.

Consider `CC(C)N1CCC(N2CCC(c3cc(F)c4nc(-c5ccc(S(C)(=O)=O)cc5)n(C5CC5)c4c3)CC2)CC1` [Example 115, 1-cyclopropyl-4-fluoro-6-(1′-isopropyl-[1,4′-bipiperidin]-4-yl)-2-(4-(methylsulfonyl)phenyl)-1H-benzo[d]imidazole], for which the IC50 in assay [1] stood at 1900 nM; in assay [2] (setting [3]), 24 nM.
For the compound `Cn1c(-c2ccc(S(C)(=O)=O)cc2)nc2ccc(C3CCN(C4CCN(C5COC5)CC4)CC3)c(F)c21` [Example 263, 7-fluoro-1-methyl-2-(4-(methylsulfonyl)phenyl)-6-(1′-(oxetan-3-yl)-[1,4′-bipiperidin]-4-yl)-1H-benzo[d]imidazole], the IC50 stood at 11900 nM in assay [1], 1800 nM in assay [2] and 1770 nM in assay [2] (setting [4]).
With `Cn1c(-c2ccc(S(C)(=O)=O)cc2)nc2ccc(C3CCN(C4CCCN(C5CCOCC5)CC4)CC3)c(F)c21` (stereo not drawn) [Example 317, 7-fluoro-1-methyl-2-(4-(methylsulfonyl)phenyl)-6-(1-(1-(tetrahydro-2H-pyran-4-yl)azepan-4-yl)piperidin-4-yl)-1H-benzo[d]imidazole], the IC50 in assay [1] was > 50000 nM; in assay [2] (setting [4]), 18 nM; in assay [2] (HEK-Blue human TLR9 reporter cells) it was 18 nM.
On to `Cc1cc(-c2ccc(C3CCN(C)CC3)cc2)cc2c1nc(-c1ccc(S(C)(=O)=O)cc1)n2C` [Example 363, 1,4-dimethyl-6-(4-(1-methylpiperidin-4-yl)phenyl)-2-(4-(methylsulfonyl)phenyl)-1H-benzo[d]imidazole], for which the IC50 was found to be 4300 nM in assay [1], 140 nM in assay [2] (setting [3]) and 100 nM in assay [2] (setting [4]).
Regarding `Cc1cc(-c2ccc(CN3CCC(N4CCCC4)CC3)cc2)cc2c1nc(-c1ccc(S(C)(=O)=O)cc1)n2C` [Example 369, 1,4-dimethyl-2-(4-(methylsulfonyl)phenyl)-6-(4-((4-(pyrrolidin-1-yl)piperidin-1-yl)methyl)phenyl)-1H-benzo[d]imidazole], the IC50 in assay [1] was 900 nM; in assay [2] (setting [3]) it was 120 nM; in assay [2] (setting [4]), 121 nM.
For `Cc1cc(-c2ccc(CN3CCCC3)cc2)cc2c1nc(-c1ccc(S(C)(=O)=O)cc1)n2C` [Example 395, 1,4-dimethyl-2-(4-(methylsulfonyl)phenyl)-6-(4-(pyrrolidin-1-ylmethyl)phenyl)-1H-benzo[d]imidazole], in that order: 11200 nM, 1400 nM and 1360 nM.
For `Cc1cc(-c2ccc(CN3C[C@@H]4CN(CC(C)C)C[C@@H]4C3)cc2)cc2c1nc(-c1ccc(S(C)(=O)=O)cc1)n2C` [Example 396, 6-(4-((cis-5-isobutylhexahydropyrrolo[3,4-c]pyrrol-2(1H)-yl)methyl)phenyl)-1,4-dimethyl-2-(4-(methylsulfonyl)phenyl)-1H-benzo[d]imidazole], in that order: 6700 nM, 200 nM and 203 nM.
As to `Cc1cc(-c2ccc(CN3C[C@@H]4CN(C(C)C)C[C@@H]4C3)cc2)cc2c1nc(-c1ccc(S(C)(=O)=O)cc1)n2C` [Example 397, 6-(4-((cis-5-isopropylhexahydropyrrolo[3,4-c]pyrrol-2(1H)-yl)methyl)phenyl)-1,4-dimethyl-2-(4-(methylsulfonyl)phenyl)-1H-benzo[d]imidazole], the results for the IC50 in assay [1], in assay [2] (setting [3]) and in assay [2] (setting [4]) were 2600 nM, 86 nM and 86 nM, respectively.
On to `Cc1cc(-c2ccc(CN3C[C@H]4CN(C)C[C@H]4C3)cc2)cc2c1nc(-c1ccc(S(C)(=O)=O)cc1)n2C` [Example 398, 1,4-dimethyl-6-(4-((cis-5-methylhexahydropyrrolo[3,4-c]pyrrol-2(1H)-yl)methyl)phenyl)-2-(4-(methylsulfonyl)phenyl)-1H-benzo[d]imidazole], for which the half-maximal inhibitory concentration (IC50) came to 1700 nM in assay [1], 130 nM in assay [2] (setting [3]) and 128 nM in assay [2] (setting [4]).
As to `Cc1cc(-c2ccc(OC3CCN(C(C)C)CC3)cc2)cc2c1nc(-c1ccc(S(C)(=O)=O)cc1)n2C` [Example 416, 6-(4-((1-isopropylpiperidin-4-yl)oxy)phenyl)-1,4-dimethyl-2-(4-(methylsulfonyl)phenyl)-1H-benzo[d]imidazole], the IC50 turned out to be 1200 nM in assay [2] (setting [3]) and 1190 nM in assay [2] (setting [4]).
For `Cc1cc(-c2ccc(OC3CCN(CC(C)C)CC3)cc2)cc2c1nc(-c1ccc(S(C)(=O)=O)cc1)n2C` [Example 417, 6-(4-((1-isobutylpiperidin-4-yl)oxy)phenyl)-1,4-dimethyl-2-(4-(methylsulfonyl)phenyl)-1H-benzo[d]imidazole], in that order: 800 nM and 800 nM.
In the same order, the values of `Cc1cc(CN2CCC(c3cc(C)c4nc(-c5ccc(S(C)(=O)=O)cc5)n(C)c4c3)CC2)cc(C)n1` [Example 418, 6-(1-((2,6-dimethylpyridin-4-yl)methyl)piperidin-4-yl)-1,4-dimethyl-2-(4-(methylsulfonyl)phenyl)-1H-benzo[d]imidazole] are 2500 nM and 2510 nM.
On to `CN(C)c1ccc(-c2nc3ccc(-c4ccc(CN5CCC(N(C)C)CC5)cc4)cc3n2C)cc1` [Example 425, 1-(4-(2-(4-(dimethylamino)phenyl)-1-methyl-1H-benzo[d]imidazol-6-yl)benzyl)-N,N-dimethylpiperidin-4-amine], for which it took 61 nM to reach half-maximal inhibition in assay [2] (setting [3]) (IC50).
